Test results published in patent publication US10888556B2, “Method for treating myopia with an nsaid and an anti-muscarinic agent” (KAOHSIUNG CHANG GUNG MEMORIAL HOSPITAL, priority 2013, dated 2021).

Assays:
[1] = tested on: TNF-α; assay: Expression of inflammation markers in choroids of FDM mice (real-time PCR); type: in vivo; conditions: FDM eye of mice, one ketorolac eye drop once a day
Description: (§1) Total RNA from SSPCs or the choroid tissue in each eye was isolated using Trizol (Invitrogen, Carlsbad, Calif.) accordingly to the manufacture's protocol. qRT-PCR analysis was carried out using the iScript one-step RT-PCR kit with SYBR Green (Bio-Rad, Hercules, USA) on an ABI PRISM 7900 HT sequence detection system (Applied Biosystems, Foster City, USA), according to the manufacturer's instructions. […] Ct values of the control gene were subtracted from those of α-SMA and Col2 to provide a semiquantitative analysis, and fold change relative to no treatment was assessed.
On the day of the experiment (postnatal day [P] 21˜24), C57BL/6J mice were anesthetized by intraperitoneal injection of ketamine (90 mg/kg) and xylazine (10 mg/kg), and the diffuser eye patches were sutured to the skin around the right eye whereas the left eye served as a control. […] The mice were recovered and monitored on a warming pad until they were fully mobile. […]
An in vivo study evaluating the expression of inflammation markers in the choroid was evaluated using FDM Mice. […]

[2] = tested on: SSPCs; assay: α-SMA and Col2 expression in SSPCs treated with TGF-β2, atropine/ketorolac combination; type: cell-based, mouse; conditions: in the presence of TGF-β2 10 ng/ml, 0.5 mM atropine, 2.5 mM ketorolac, or combination
Description: In brief, sclera from the mouse was obtained and was carefully dissected away from limbus and optic disc under a dissection microscope. After retina and choroid tissues were removed, the scleral tissue was cut into small pieces and digested with 1.5 mg/ml collagenase type I (Worthington Biochemical, Lakewood, USA) and 2 mg/ml of dispase (Roche, Basel, Switzerland) in PBS for 1 h at 37° C. to release individual cells. Individual cells were cultured in α-MEM (Invitrogen, Carlsbad, USA), supplemented with 20% lot-selected FBS (Equitech-Bio, Kerrville, USA), glutamine, penicillin/streptomycin and 100 mM 2-mercaptoethanol (Invitrogen) for 8 to 10 days at 5% CO2, 37° C.
Total RNA from SSPCs or the choroid tissue in each eye was isolated using Trizol (Invitrogen, Carlsbad, Calif.) accordingly to the manufacture's protocol. qRT-PCR analysis was carried out using the iScript one-step RT-PCR kit with SYBR Green (Bio-Rad, Hercules, USA) on an ABI PRISM 7900 HT sequence detection system (Applied Biosystems, Foster City, USA), according to the manufacturer's instructions. […] Ct values of the control gene were subtracted from those of α-SMA and Col2 to provide a semiquantitative analysis, and fold change relative to no treatment was assessed. […]

[3] = tested on: myopic patient; assay: Treating a myopia subject with NSAID (ketorolac ophthalmic solution); type: in vivo, human; conditions: one patient, both eyes, after three months of about 0.5% ketorolac, one drop at night
Description: The dose of ketorolac was about 0.5% weight ketorolac per unit dose (about 0.05 to 0.5 ml) and the affected eye was given one drop (about 0.05 to 0.5 ml) of ketorolac ophthalmic solution at night.

[4] = tested on: human SSPC; assay: Col2 and α-SMA expression in human SSPC treated with TGF-β2 (western blot); type: cell-based; conditions: in the presence of TGF-β2 (10 ng/ml), 1 mM atropine, 5 mM ketorolac, 1 mM diclofenac
Description: Different concentrations of TGF-β2 were added into 12-wells of SSPCs. After 24 hrs, the images of SSPC morphology were recorded. The total RNA was extracted for further analysis. A chamber slide culture for the immunofluorescence study was performed under the same condition.
The total protein from the sclera was extract by using RIPA protein extraction buffer. After homogenization of scleral tissue, the sample was centrifuged and the supernatant was collected. The protein concentration of each sample was measured using a BCA™ protein Assay Kit (Bio-Rad). Scleral protein samples were standardized and electrophoresed on 10% SDS-PAGE gel, then transferred to a polyvinylidene fluoride transfer membrane (Immun-Blot PVDF Membrane, BIO-RAD) at 21 V for 1 h. Membranes were blocked for 1 h at room temperature with 5% dry milk in PBS with 0.1% Tween and incubated at 4° C. overnight with primary antibodies. Membranes were washed and incubated with 1:10,000 goat anti-mouse or anti-rabbit IgG antibodies conjugated to horseradish peroxidase (Santa Cruz) for 1 h at room temperature and washed again. Membranes were developed by chemiluminescence with the reagent Lumigen TMA-6 (GE Healthcare UK limited, Buckinghumshire, UK) and images were captured with the LAS-4000 imaging system (Fujifilm, Tokyo, Japan). Protein bands were quantified using ImageJ software.
An in vitro study examining the effect of an anti-muscarinic agent and NSAID on Col2 and α-SMA expressions was performed using human SSPC.

[5] = tested on: SSPC; assay: Effect of TGF-β2 treatment on α-SMA and Col2 gene expression in SSPC (quantitative Real Time-PCR); type: cell-based, mouse; conditions: 0.1 to 10 ng/ml TGF-β2 for 24 hrs, dose dependent
Description: The SSPCs were isolated and cultured as previously described by CL Tsai et al. (Identification of multipotent stem/progenitor cells in murine sclera. Invest Ophthalmol Vis Sci 52:5481-5487, 2011). In brief, sclera from the mouse was obtained and was carefully dissected away from limbus and optic disc under a dissection microscope. After retina and choroid tissues were removed, the scleral tissue was cut into small pieces and digested with 1.5 mg/ml collagenase type I (Worthington Biochemical, Lakewood, USA) and 2 mg/ml of dispase (Roche, Basel, Switzerland) in PBS for 1 h at 37° C. to release individual cells. […]
Different concentrations of TGF-β2 were added into 12-wells of SSPCs. After 24 hrs, the images of SSPC morphology were recorded. […]
as §1, with “assessed. […]” for “assessed.”

With O=C(c1ccccc1)c1ccc2n1CCC2C(=O)O (stereo not drawn) [ketorolac] the “level of TNF-α in the choroids” value [1] was “suppressed”, the “expression of Col2” value [2] was “reduced” and the “expression of α-SMA” value [2] was “reduced”. For the same molecule, the myopia progression [3] was “no myopia progression”, the “expression of Col2” value [4] was “suppressed” and the “expression of α-SMA” value [4] was “suppressed”.

O=C(O)Cc1ccccc1Nc1c(Cl)cccc1Cl [diclofenac] was tested, and the “expression of Col2” value [4] was “suppressed” and the “expression of α-SMA” value [4] was “suppressed”.

In the case of CN1[C@@H]2CC[C@H]1C[C@@H](OC(=O)C(CO)c1ccccc1)C2 (stereo partly drawn) [atropine], the “expression of Col2” value [4] is reported as “suppressed” and the “expression of α-SMA” value [4] is reported as “suppressed”.

B1: TGF-β2: Transforming growth factor beta 2 (SEQ ID NO:5), ocular chondrogenic protein used to induce α-SMA and Col2 in SSPC (protein, listed as Homo sapiens)
chain: MHYCVLSAFLILHLVTVALSLSTCSTLDMDQFMRKRIEAIRGQILSKLKLTSPPEDYPEPEEVPPEVISIYNSTRDLLQEKASRRAAACERERSDEEYYAKEVYKIDMPPFFPSEAIPPTFYRPYFRIVRFDVSAMEKNASNLVKAEFRVFRLQNPKARVPEQRIELYQILKSKDLTSPTQRYIDSKVVKTRAEGEWLSFDVTDAVHEWLHHKDRNLGFKISLHCPCCTFVPSNNYIIPNKSEELEARFAGIDGTSTYTSGDQKTIKSTRKKNSGKTPHLLLMLLPSYRLESQQTNRRKKRALDAAYCFRNVQDNCCLRPLYIDFKRDLGWKWIHEPKGYNANFCAGACPYLWSSDTQHSRVLSLYNTINPEASASPCCVSQDLEPLTILYYIGKTPKIEQLSNMIVKSCKCS
modifications: Transforming growth factor beta-2 (TGF-beta-2)
For B1, the α-SMA gene expression ([5]; p<0.0001) was “statistically significant increase” and the Col2 gene expression ([5]; p=0.011) was “statistically significant increase”.
